Test results from PubChem BioAssay (NCI).
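These data come from cells grown in 96-well plates and exposed to compound for 48 hours at five concentrations. TGI is the concentration that stops growth completely.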

Columns and labels:
Assay in all cases: growth of human tumour cells (NCI), 48 h
[1] = test system: 786-0 renal
[2] = test system: A498 renal
[3] = test system: A549 NSCLC
[4] = test system: ACHN renal
[5] = test system: CAKI-1 renal
[6] = test system: COLO 205 colon
[7] = test system: DLD-1 colon
[8] = test system: DMS 114 small cell lung
[9] = test system: DMS 273 small cell lung
[10] = test system: EKVX NSCLC
[11] = test system: HCC-2998 colon
[12] = test system: HCT-116 colon
[13] = test system: HL-60(TB) leukemia
[14] = test system: HOP-18 NSCLC
[15] = test system: HOP-62 NSCLC
[16] = test system: HOP-92 NSCLC
[17] = test system: HT29 colon
[18] = test system: IGROV1 ovarian
[19] = test system: K-562 leukemia
[20] = test system: KM12 colon
[21] = test system: KM20L2 colon
[22] = test system: LOX IMVI melanoma
[23] = test system: LXFL 529 NSCLC
[24] = test system: M14 melanoma
[25] = test system: M19-MEL melanoma
[26] = test system: MALME-3M melanoma
[27] = test system: MOLT-4 leukemia
[28] = test system: NCI-H226 lung
[29] = test system: NCI-H23 lung
[30] = test system: NCI-H460 lung
[31] = test system: NCI-H522 lung
[32] = test system: OVCAR-3 ovarian
[33] = test system: OVCAR-4 ovarian
[34] = test system: OVCAR-5 ovarian
[35] = test system: OVCAR-8 ovarian
[36] = test system: RPMI-8226 leukemia
[37] = test system: RXF 393 renal
[38] = test system: SF-268 CNS
[39] = test system: SF-295 CNS
[40] = test system: SF-539 CNS
[41] = test system: SK-MEL-28 melanoma
[42] = test system: SK-MEL-5 melanoma
[43] = test system: SK-OV-3 ovarian
[44] = test system: SN12C renal
[45] = test system: SNB-19 CNS
[46] = test system: SNB-75 CNS
[47] = test system: SNB-78 CNS
[48] = test system: SR leukemia
[49] = test system: SW-620 colon
[50] = test system: TK-10 renal
[51] = test system: U251 CNS
[52] = test system: UACC-257 melanoma
[53] = test system: UACC-62 melanoma
[54] = test system: UO-31 renal
[55] = test system: XF 498 CNS
[56] = test system: CCRF-CEM leukemia
[57] = test system: HCT-15 colon
[58] = test system: RXF-631 renal
[59] = test system: SK-MEL-2 melanoma

O=S1(=O)C[C@H](O)[C@H](O)CS1
TGI [1]: > 100 µM
TGI [2]: > 100 µM
TGI [3]: > 100 µM
TGI [4]: > 100 µM
TGI [5]: > 100 µM
TGI [6]: > 100 µM
TGI [7]: > 100 µM
TGI [8]: > 100 µM
TGI [9]: > 100 µM
TGI [10]: > 100 µM
TGI [11]: > 100 µM
TGI [12]: > 100 µM
TGI [13]: > 100 µM
TGI [14]: > 100 µM
TGI [15]: > 100 µM
TGI [16]: > 100 µM
TGI [17]: > 100 µM
TGI [18]: > 100 µM
TGI [19]: > 100 µM
TGI [20]: > 100 µM
TGI [21]: > 100 µM
TGI [22]: > 100 µM
TGI [23]: > 100 µM
TGI [24]: > 100 µM
TGI [25]: > 100 µM
TGI [26]: > 100 µM
TGI [27]: > 100 µM
TGI [28]: > 100 µM
TGI [29]: > 100 µM
TGI [30]: > 100 µM
TGI [31]: > 100 µM
TGI [32]: > 100 µM
TGI [33]: > 100 µM
TGI [34]: > 100 µM
TGI [35]: > 100 µM
TGI [36]: > 100 µM
TGI [37]: > 100 µM
TGI [38]: > 100 µM
TGI [39]: > 100 µM
TGI [40]: > 100 µM
TGI [41]: > 100 µM
TGI [42]: > 100 µM
TGI [43]: > 100 µM
TGI [44]: > 100 µM
TGI [45]: > 100 µM
TGI [46]: > 100 µM
TGI [47]: > 100 µM
TGI [48]: > 100 µM
TGI [49]: > 100 µM
TGI [50]: > 100 µM
TGI [51]: > 100 µM
TGI [52]: > 100 µM
TGI [53]: > 100 µM
TGI [54]: > 100 µM
TGI [55]: > 100 µM

O=[N+]([O-])c1ccc(C2=Nn3cnnc3SC2)o1
TGI [1]: 32.1 µM
TGI [2]: 32.3 µM
TGI [3]: 56.7 µM
TGI [4]: 29.4 µM
TGI [56]: 51.1 µM
TGI [7]: 41.4 µM
TGI [8]: 28.8 µM
TGI [9]: 36.3 µM
TGI [11]: 29.2 µM
TGI [12]: 30.8 µM
TGI [57]: 27.2 µM
TGI [13]: 37.6 µM
TGI [15]: 89.5 µM
TGI [16]: 49.4 µM
TGI [17]: 28.2 µM
TGI [19]: 42.3 µM
TGI [20]: 47.6 µM
TGI [22]: 5.99 µM
TGI [23]: 26.4 µM
TGI [24]: 32.8 µM
TGI [25]: 13.8 µM
TGI [27]: 43.2 µM
TGI [28]: 67.2 µM
TGI [30]: 26.3 µM
TGI [32]: 31.7 µM
TGI [34]: 36.8 µM
TGI [35]: 53.9 µM
TGI [36]: 42.5 µM
TGI [37]: 32.9 µM
TGI [58]: 28.1 µM
TGI [38]: 58.2 µM
TGI [39]: 34.6 µM
TGI [40]: 36.3 µM
TGI [59]: 50.7 µM
TGI [41]: 31.1 µM
TGI [42]: 31.5 µM
TGI [44]: 30.1 µM
TGI [45]: 79 µM
TGI [46]: 51.7 µM
TGI [47]: 51.9 µM
TGI [48]: 39.4 µM
TGI [49]: 25.3 µM
TGI [50]: > 100 µM
TGI [51]: 30.1 µM
TGI [52]: 29.6 µM
TGI [54]: 36.5 µM
TGI [55]: 30.2 µM
